What was measured:
[1] = biological target: T1, COX-2 enzyme (Ovis aries, UniProt P79208); test: colorimetric COX (ovine) inhibitor screening assay, COX-2 inhibition; conditions: peaks of subfractionated paradol fraction (Method C)
T1 sequence (P79208 17-603): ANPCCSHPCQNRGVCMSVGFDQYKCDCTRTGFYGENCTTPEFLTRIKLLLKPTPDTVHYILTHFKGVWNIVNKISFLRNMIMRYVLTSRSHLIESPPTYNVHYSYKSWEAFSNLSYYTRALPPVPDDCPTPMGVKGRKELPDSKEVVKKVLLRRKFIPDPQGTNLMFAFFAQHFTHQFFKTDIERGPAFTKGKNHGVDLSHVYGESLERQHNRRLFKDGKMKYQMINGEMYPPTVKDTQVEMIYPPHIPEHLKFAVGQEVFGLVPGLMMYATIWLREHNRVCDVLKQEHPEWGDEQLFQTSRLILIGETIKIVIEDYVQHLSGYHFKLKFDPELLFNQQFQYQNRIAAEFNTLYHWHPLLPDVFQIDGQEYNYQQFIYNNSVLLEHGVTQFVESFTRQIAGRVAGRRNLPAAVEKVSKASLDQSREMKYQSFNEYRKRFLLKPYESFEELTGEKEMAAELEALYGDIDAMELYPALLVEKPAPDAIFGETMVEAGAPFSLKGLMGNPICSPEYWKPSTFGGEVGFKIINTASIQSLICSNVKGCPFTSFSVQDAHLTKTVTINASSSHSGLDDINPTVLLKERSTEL
Method: The anti-inflammatory extract product of Example 1 was suspended in 95 vol. % ethanol at a concentration of 1 milligram (mg) extract product per milliliter (mL) ethanol to form an A. melegueta solution. The activity of the solution was tested with a colorimetric COX (ovine) inhibitor screening assay (catalogue no. 760111, Cayman Chemical, Ann Arbor, Mich.). The screening assay measures the peroxidase activity of cyclooxygenases by monitoring the appearance of oxidized N,N,N′N′-tetramethyl-p-phenylenediamine (TMPD) at 590 nm as previously described [Kulmacz, Prostaglandins, 25:531-540 (1983)]. A (relatively) higher TMPD concentration corresponds to a greater absorbance at 590 nm, a greater peroxidase activity, and a greater COX-2 activity (corresponding to the degree of inhibition of COX-2 activity).
Three milliliters (mL) of assay buffer concentrate (as provided) was diluted with 27 mL HPLC-grade water to provide a final assay buffer (0.1M Tris-HCl, pH 8). This buffer assay solution was used to prepare heme and COX-2 enzyme assay solutions. […]
10 μl of 95 vol. % ethanol was then added to the background and negative control wells. […] The absorbance for each well was measured at 590 nm using a plate reader.
The inhibitory activity was calculated from these absorbance readings. […]

[2] = tested on: carrageenan hind paw edema; test: rat hind paw edema assay, two studies (Example 4); assay type: in vivo, Long-Evans-derived rats; conditions: 1 h after carrageenan (positive control)
Method: Two studies were conducted. […] The anti-inflammatory extract product was administered to the groups at different dose protocols. Comparisons can be made relative to the negative and positive control animal groups. Groups 2 and 4 of the first and second study, and Groups 2 and 5 of the second study, received a single dose of the extract product one hour after hind paw injection of carrageenan (0.1 ml of a suspension of 1 wt. % carrageenan in […], intraplantar). Group 3 of both studies received a first dose of the extract product one hour before, and a second dose of the extract product one hour after, hind paw injection of carrageenan. […] Group 4 of the second study received a dose of the extract product one hour before administration of carrageenan. Group 5 of the first study and Group 6 of the second study received indomethacin, a commercially available nonsteroidal anti-inflammatory drug, one hour after hind paw injection of carrageenan. Indomethacin was administered as a positive control reference compound, and Groups 5 and 6 (of the first and second studies, respectively) represent positive control groups. The severity of the hind paw edema (i.e., hind paw volume) was recorded at 3 hours after, 5 hours after, and 24 hours after carrageenan administration using a plethysmometer (Ugo Basile, Italy). The hind paw volume measurements after carrageenan administration correspond to the amount of induced swelling, and a reduction in the percentage of increase in hind paw volume relative to the percentage of increase observed in hind paw volume for the negative control group corresponds to a reduction in inflammation. For example, the hind paw volume of the negative control group of the first study (Group 1) increased by about 45% whereas the hind paw volume of Group 2 (which received an Aframomum melegueta extract product) increased by only 25%.

[3] = tested on: acetic acid-induced writhing; test: acetic acid-induced writhing assay; assay type: in vivo, mice; conditions: 100 mg/kg
Method: This writhing assay has been previously described [Inoue et al., Arzneimittelforschung, 41(3):235-239 (1991).] […] An aqueous solution comprising 2 vol. % Tween 80 was administered as a negative control to another group of three mice. Aspirin was administered at 100 mg/kg as a positive control to a fourth group of three mice. The number of writhings per animal group was observed during the period beginning at about five minutes after acetic acid challenge and ending at about ten minutes after acetic acid challenge. The average number of writhings per animal group is an indication of pain, e.g., inflammation-induced pain, and therefore a reduction in the number of writhings per unit time per animal group corresponds to a reduction in inflammation. The reduction in number of writhings can be expressed relative to the negative control value as a percentage of inflammation inhibition.

[4] = tested on: carrageenan hind paw edema; test: rat hind paw edema assay (Example 3); assay type: in vivo, Long-Evans-derived rats; conditions: 150 mg/kg; 3 h after carrageenan
Method: Hind paw edema models have been extensively described [see, for example, […] et al. (eds.), Inflammation Protocols, pp. 115-122 (2003)] and have been accepted as in vivo models of human inflammation. […] Aspirin was administered to another group of three Long-Evans rats at 150 mg/kg dose as a positive control reference compound. The severity of the hind paw edema (i.e., the hind paw volume) was recorded 3 hours after carrageenan administration using a plethysmometer (Ugo Basile, Italy). The hind paw volume measurements correspond to the amount of induced swelling, and therefore a reduction in the swelling corresponds to a reduction in inflammation. The anti-inflammatory activity of the Aframomum melegueta extract products can be expressed as a percentage of edema reduction (relative to the negative control (i.e., full edema)).

[5] = first study Group 5: 15 mg/kg, 3 h
[6] = first study Group 5: 15 mg/kg, 5 h
[7] = first study Group 5: 15 mg/kg, 24 h
[8] = second study Group 6: 15 mg/kg, 3 h
[9] = second study Group 6: 15 mg/kg, 5 h
[10] = second study Group 6: 15 mg/kg, 24 h

CCCCCCCC(=O)CCc1ccc(O)c(OC)c1 (single isomer, unassigned) [second peak, [6]-paradol] was tested, and the inhibition at 1000 µg/mL ([1]; read-out: COX-2 inhibitory activity, 1 mg/mL) was 83%.

COc1ccc2c(c1)c(CC(=O)O)c(C)n2C(=O)c1ccc(Cl)cc1 [Indomethacin, indomethacin] was tested, and the “Increase in rat hind paw volume after carrageenan administration” value (shortened to “Increase in rat hind paw volume”) [2, 5] was 44%, the “rat hind paw volume after carrageenan administration” value [2, 5] was 1.51 ± 0.05 mL and the “Increase in rat hind paw volume” value [2, 6] was 29%. For the same compound, the “rat hind paw volume after carrageenan administration” value [2, 6] was 1.35 ± 0.08 mL, the “Increase in rat hind paw volume” value [2, 7] was 12% and the “rat hind paw volume after carrageenan administration” value [2, 7] was 1.18 ± 0.1 mL. For the same compound, the “Increase in rat hind paw volume” value [2, 8] was 44%, the “rat hind paw volume after carrageenan administration” value [2, 8] was 1.51 ± 0.05 mL and the “Increase in rat hind paw volume” value [2, 9] was 29%. For the same compound, the “rat hind paw volume after carrageenan administration” value [2, 9] was 1.35 ± 0.08 mL, the “Increase in rat hind paw volume” value [2, 10] was 12% and the “rat hind paw volume after carrageenan administration” value [2, 10] was 1.18 ± 0.1 mL.

CCCCCCCC(=O)CCc1ccc(O)c(OC)c1 (single isomer, unassigned) [first peak, [6]-paradol] showed a COX-2 inhibitory activity ([1]; 1 mg/mL) of 74%.

For CC(=O)Oc1ccccc1C(=O)O [aspirin], the “percentage of inflammation inhibition (writhing)” value [3] was 80%, the “average number of writhings per animal group” value ([3]; 5-10 min after challenge) was 3 and the “reduction of hind paw edema” value [4] was “about 43%”.

— patent US20050260290A1, “Botanical anti-inflammatory compositions and methods” (RUTGERS, THE STATE UNIVERSITY OF NEW JERSEY, priority 2004, published 2005)
